One test has as its system H929 cells. Briefly: Cell viability assay in H929 cells (Cell TiterGlo). It is filed as cell-based. The settings on record: Homo sapiens, NCI-H929, 24 hours at 37° C. Here is the method:
Cell viability assays were performed using A431 or H929 cells. A431 cells were seeded in 96-well plates at 10,000 cells/well, and after overnight incubation, treated with compounds at 2-times the final concentration to result in a dose response of 3-fold dilutions from 10 μM to 0.0005 μM (50 μL/well, 0.1% final DMSO concentration). H929 cells were seeded in 96-well plates at 10,000 cells/well and treated immediately with compounds as described above. After 24 hours at 37° C., cell viability was measured using Cell TiterGlo reagent (Promega) with a luminescence reader. Alternately, cell viability assays were performed in 384-well format. A431 cells were seeded in 384-well plates at 2500 cells/well and, after overnight incubation, treated with compounds in a dose response of 3-fold dilutions from 10 μM to 0.0005 μM (25 nL/well, 0.1% final DMSO concentration). For the H929 viability assay, 25 nL/well of the compounds was dispensed into 384-well plates in a dose response as described above and cells were immediately seeded in 384-well plates at 2500 cells/well. After 24 hours at 37° C., cell viability was measured using Cell TiterGlo reagent (Promega) with a luminescence reader.
Background: Cellular ATP, detected with luciferase, serves as a proxy for viable cell number.

A further test has as its target T1, CDK9/Cyclin T1 (Homo sapiens, UniProt P50750).
T1 construct: purchased Carna Biosciences 04-110
Briefly: CDK9 enzyme protocol (LANCE ULight TR-FRET kinase assay). It counts as biochemical. The settings on record: 4 nM CDK9/Cyclin T1, 1000 μM ATP, 100 nM U-light MBP peptide, 30 minutes. Here is the method: CDK9 enzyme activities were measured using LANCE ULight TR-FRET kinase assay reagents (PerkinElmer, Waltham, Mass.). Compounds were directly added in 100% DMSO to white low volume assay plates (Perkin Elmer Proxiplate 6008289) using a Labcyte Echo acoustic dispenser. Assay reagents in serine/threonine kinase assay buffer containing 20 mM HEPES, 10 mM MgCl2, 100 mM Na3VO4, and 0.0075% Triton X-100. were added for final reaction mixture concentrations of 1000 μM ATP, 100 nM U-light MBP peptide (Perkin Elmer TRF0109M) and reaction initiated with 4 nM CDK9/Cyclin T1 (Carna Biosciences 04-110). The kinase reaction was carried out for 30 minutes before addition of stopping buffer to a final of 20 mM EDTA and 0.5 nM of LANCE Ultra Europium anti-phospho-MBP antibody (PerkinElmer TRF0201M) in LANCE detection buffer (PerkinElmer CR97-100). The reaction was equilibrated for 1 hour and the signal read in the Perkin Elmer Envision in TR-FRET mode (excitation at 320 nm and emission at 615/665 nm).
For orientation: In TR-FRET formats the signal depends on donor and acceptor labels being close together.

27 compounds from patent publication US9346813B2, “Substituted pyrrolo[2,3-d]pyrimindines as CDK9 kinase inhibitors” (AbbVie Inc., priority 2014, dated 2016) can be followed below.

As a reminder, the EC50 is the concentration giving half of the maximal effect. A high value points to a need for much substance. A word on the IC50: it is the concentration that gives 50% inhibition. High values mean weaker potency, low ones greater potency.

T1 sequence (P50750 whole entry): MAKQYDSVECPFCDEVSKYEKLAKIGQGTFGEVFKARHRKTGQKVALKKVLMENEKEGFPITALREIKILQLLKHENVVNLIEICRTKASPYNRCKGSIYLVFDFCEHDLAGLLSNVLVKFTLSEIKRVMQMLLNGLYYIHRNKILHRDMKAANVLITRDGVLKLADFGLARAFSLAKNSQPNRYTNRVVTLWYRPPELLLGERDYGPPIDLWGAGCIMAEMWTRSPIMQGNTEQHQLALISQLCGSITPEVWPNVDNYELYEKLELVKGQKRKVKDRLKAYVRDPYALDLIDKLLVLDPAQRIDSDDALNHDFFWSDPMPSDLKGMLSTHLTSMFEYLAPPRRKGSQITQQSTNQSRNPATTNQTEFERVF
T1 sequence (O60563 whole entry partner): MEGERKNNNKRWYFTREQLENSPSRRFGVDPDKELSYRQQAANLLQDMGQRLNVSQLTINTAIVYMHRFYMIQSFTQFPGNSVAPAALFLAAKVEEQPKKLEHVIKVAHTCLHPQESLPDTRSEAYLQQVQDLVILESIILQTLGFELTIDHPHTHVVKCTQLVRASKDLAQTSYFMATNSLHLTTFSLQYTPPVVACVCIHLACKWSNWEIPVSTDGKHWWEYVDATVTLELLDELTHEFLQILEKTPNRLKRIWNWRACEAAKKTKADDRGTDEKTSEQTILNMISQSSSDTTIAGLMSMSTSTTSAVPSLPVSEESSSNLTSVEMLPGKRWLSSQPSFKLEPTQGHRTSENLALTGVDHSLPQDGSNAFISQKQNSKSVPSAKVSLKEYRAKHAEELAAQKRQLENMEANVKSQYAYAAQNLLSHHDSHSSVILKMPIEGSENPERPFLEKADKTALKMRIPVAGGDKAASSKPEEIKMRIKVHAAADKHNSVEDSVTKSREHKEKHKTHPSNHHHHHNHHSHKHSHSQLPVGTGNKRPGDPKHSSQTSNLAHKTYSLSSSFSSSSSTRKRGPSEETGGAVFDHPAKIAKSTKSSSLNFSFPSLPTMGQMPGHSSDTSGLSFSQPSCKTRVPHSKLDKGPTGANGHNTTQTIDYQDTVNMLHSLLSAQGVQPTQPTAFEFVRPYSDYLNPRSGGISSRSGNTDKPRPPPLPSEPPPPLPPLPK

Compound `COc1ccc(F)cc1-c1ncnc2[nH]c(C3=CCN(CC(O)CO)CC3)cc12` (stereo not drawn) [Example 20, 3-{4-[4-(5-fluoro-2-methoxyphenyl)-7H-pyrrolo[2,3-d]pyrimidin-6-yl]-3,6-dihydropyridin-1(2H)-yl}propane-1,2-diol] displayed an EC50 in the test with H929 cells of 380 nM. That is a sub-micromolar value. `CCCCOc1ccc(F)cc1-c1ncnc2[nH]c(C3=CCN(S(C)(=O)=O)CC3)cc12` [Example 42, 4-(2-butoxy-5-fluorophenyl)-6-[1-(methylsulfonyl)-1,2,3,6-tetrahydropyridin-4-yl]-7H-pyrrolo[2,3-d]pyrimidine] came in with an IC50 on CDK9/Cyclin T1 of 1200 nM. In turn, `CCOc1ccc(F)cc1-c1ncnc2[nH]c(C3=CCN(C(=O)OC(C)(C)C)CC3)cc12` [Example 66, tert-butyl 4-[4-(2-ethoxy-5-fluorophenyl)-7H-pyrrolo[2,3-d]pyrimidin-6-yl]-3,6-dihydropyridine-1(2H)-carboxylate] yielded an IC50 against CDK9/Cyclin T1 of 1500 nM. The IC50 values of the last two compounds are within 1.5-fold of each other.

With `CS(=O)(=O)Nc1cccc(-c2ncnc3[nH]c(C4=CCN(S(C)(=O)=O)CC4)cc23)c1` [Example 48, N-(3-{6-[1-(methylsulfonyl)-1,2,3,6-tetrahydropyridin-4-yl]-7H-pyrrolo[2,3-d]pyrimidin-4-yl}phenyl)methanesulfonamide], the IC50 at CDK9/Cyclin T1 came to 290 nM. Turning to `CS(=O)(=O)N1CC=C(c2cc3c(-c4cc(NCc5ccccn5)ccc4F)ncnc3[nH]2)CC1` [Example 33, 4-fluoro-3-{6-[1-(methylsulfonyl)-1,2,3,6-tetrahydropyridin-4-yl]-7H-pyrrolo[2,3-d]pyrimidin-4-yl}-N-(pyridin-2-ylmethyl)aniline], 300 nM corresponded to half-maximal inhibition on CDK9/Cyclin T1 (IC50). The compound `CC(C)Oc1ccc(F)c(-c2ncnc3[nH]c(C4=CCN(S(C)(=O)=O)CC4)cc23)c1` [Example 52, 4-[2-fluoro-5-(propan-2-yloxy)phenyl]-6-[1-(methylsulfonyl)-1,2,3,6-tetrahydropyridin-4-yl]-7H-pyrrolo[2,3-d]pyrimidine] displayed an IC50 against CDK9/Cyclin T1 of 10100 nM.

Turning to `CS(=O)(=O)N1CC=C(c2cc3c(-c4ccccc4OC(F)(F)F)ncnc3[nH]2)CC1` [Example 58, 6-[1-(methylsulfonyl)-1,2,3,6-tetrahydropyridin-4-yl]-4-[2-(trifluoromethoxy)phenyl]-7H-pyrrolo[2,3-d]pyrimidine], at CDK9/Cyclin T1, the IC50 was greater than 12500 nM.

As to `CS(=O)(=O)N1CC=C(c2cc3c(N4CCC(F)(F)CC4)ncnc3[nH]2)CC1` [Example 63, 4-(4,4-difluoropiperidin-1-yl)-6-[1-(methylsulfonyl)-1,2,3,6-tetrahydropyridin-4-yl]-7H-pyrrolo[2,3-d]pyrimidine], on CDK9/Cyclin T1, 1300 nM corresponded to half-maximal inhibition (IC50).

In turn, `CS(=O)(=O)N1CC=C(c2cc3c(-c4cccc(OC(F)(F)F)c4)ncnc3[nH]2)CC1` [Example 56, 6-[1-(methylsulfonyl)-1,2,3,6-tetrahydropyridin-4-yl]-4-[3-(trifluoromethoxy)phenyl]-7H-pyrrolo[2,3-d]pyrimidine] came in with an IC50 on CDK9/Cyclin T1 of 1600 nM.

The compound `Cc1ccc(OC(C)C)c(-c2ncnc3[nH]c(C4=CCN(S(C)(=O)=O)CC4)cc23)c1` [Example 43, 4-[5-methyl-2-(propan-2-yloxy)phenyl]-6-[1-(methylsulfonyl)-1,2,3,6-tetrahydropyridin-4-yl]-7H-pyrrolo[2,3-d]pyrimidine] gave an IC50 on CDK9/Cyclin T1 greater than 12500 nM.

In the case of `COc1ccc(F)cc1-c1ncnc2[nH]c(C3=CCN(Cc4ccc(NC(=O)OC(C)(C)C)cc4)CC3)cc12` [Example 69, tert-butyl [4-({4-[4-(5-fluoro-2-methoxyphenyl)-7H-pyrrolo[2,3-d]pyrimidin-6-yl]-3,6-dihydropyridin-1(2H)-yl}methyl)phenyl]carbamate], the half-inhibitory concentration (IC50) against CDK9/Cyclin T1 came to 450 nM. Same read-out and setting: with `CS(=O)(=O)N1CC=C(c2cc3c(N4CC(F)(F)C4)ncnc3[nH]2)CC1` [Example 64, 4-(3,3-difluoroazetidin-1-yl)-6-[1-(methylsulfonyl)-1,2,3,6-tetrahydropyridin-4-yl]-7H-pyrrolo[2,3-d]pyrimidine] the figure was 2000 nM; with `CCCCOc1ccc(F)c(-c2ncnc3[nH]c(C4=CCN(S(C)(=O)=O)CC4)cc23)c1` [Example 54, 4-(5-butoxy-2-fluorophenyl)-6-[1-(methylsulfonyl)-1,2,3,6-tetrahydropyridin-4-yl]-7H-pyrrolo[2,3-d]pyrimidine], 4100 nM; with `CS(=O)(=O)N1CC=C(c2cc3c(-c4ccccc4C(F)(F)F)ncnc3[nH]2)CC1` [Example 47, 6-[1-(methylsulfonyl)-1,2,3,6-tetrahydropyridin-4-yl]-4-[2-(trifluoromethyl)phenyl]-7H-pyrrolo[2,3-d]pyrimidine], 1400 nM. At CDK9/Cyclin T1, `CS(=O)(=O)N1CC=C(c2cc3c(N4CCOCC4)ncnc3[nH]2)CC1` [Example 60, 6-[1-(methylsulfonyl)-1,2,3,6-tetrahydropyridin-4-yl]-4-(morpholin-4-yl)-7H-pyrrolo[2,3-d]pyrimidine] registered a 50% inhibitory concentration (IC50) of 4000 nM. This IC50 lies about 2.9-fold higher than the previous one. For `Cc1ccc(F)c(-c2ncnc3[nH]c(C4=CCN(S(C)(=O)=O)CC4)cc23)c1` [Example 50, 4-(2-fluoro-5-methylphenyl)-6-[1-(methylsulfonyl)-1,2,3,6-tetrahydropyridin-4-yl]-7H-pyrrolo[2,3-d]pyrimidine], the IC50 against CDK9/Cyclin T1 turned out to be 1000 nM. Turning to `CCCOc1ccc(C)cc1-c1ncnc2[nH]c(C3=CCN(S(C)(=O)=O)CC3)cc12` [Example 53, 4-(5-methyl-2-propoxyphenyl)-6-[1-(methylsulfonyl)-1,2,3,6-tetrahydropyridin-4-yl]-7H-pyrrolo[2,3-d]pyrimidine], the IC50 against CDK9/Cyclin T1 stood at 2800 nM. With `CS(=O)(=O)N1CC=C(c2cc3c(N4CCCC4)ncnc3[nH]2)CC1` [Example 62, 6-[1-(methylsulfonyl)-1,2,3,6-tetrahydropyridin-4-yl]-4-(pyrrolidin-1-yl)-7H-pyrrolo[2,3-d]pyrimidine], at CDK9/Cyclin T1, the midpoint of inhibition, the IC50, lay at 5000 nM. The compound `Cc1cc(Cl)cc(-c2ncnc3[nH]c(C4=CCN(S(C)(=O)=O)CC4)cc23)c1F` [Example 41, 4-(5-chloro-2-fluoro-3-methylphenyl)-6-[1-(methylsulfonyl)-1,2,3,6-tetrahydropyridin-4-yl]-7H-pyrrolo[2,3-d]pyrimidine] had an IC50 on CDK9/Cyclin T1 of 11700 nM. `CS(=O)(=O)N1CC=C(c2cc3c(-c4ccc(F)cc4F)ncnc3[nH]2)CC1` [Example 46, 4-(2,4-difluorophenyl)-6-[1-(methylsulfonyl)-1,2,3,6-tetrahydropyridin-4-yl]-7H-pyrrolo[2,3-d]pyrimidine] returned an IC50 on CDK9/Cyclin T1 of 830 nM. `CS(=O)(=O)N1CC=C(c2cc3c(-c4cc(C(F)(F)F)ccc4F)ncnc3[nH]2)CC1` [Example 51, 4-[2-fluoro-5-(trifluoromethyl)phenyl]-6-[1-(methylsulfonyl)-1,2,3,6-tetrahydropyridin-4-yl]-7H-pyrrolo[2,3-d]pyrimidine] had an IC50 at CDK9/Cyclin T1 greater than 12500 nM. Consider `CCCOc1ccc(F)cc1-c1ncnc2[nH]c(C3=CCN(S(C)(=O)=O)CC3)cc12` [Example 49, 4-(5-fluoro-2-propoxyphenyl)-6-[1-(methylsulfonyl)-1,2,3,6-tetrahydropyridin-4-yl]-7H-pyrrolo[2,3-d]pyrimidine], for which the IC50 against CDK9/Cyclin T1 turned out to be 1300 nM.

On to `CCOc1ccc(F)cc1-c1ncnc2[nH]c(C3=CCNCC3)cc12` [Example 67, 4-(2-ethoxy-5-fluorophenyl)-6-(1,2,3,6-tetrahydropyridin-4-yl)-7H-pyrrolo[2,3-d]pyrimidine], for which half-maximal inhibition against CDK9/Cyclin T1 (IC50) required 300 nM.

In turn, `Cn1cc(-c2ncnc3[nH]c(C4=CCN(S(C)(=O)=O)CC4)cc23)cn1` [Example 57, 4-(1-methyl-1H-pyrazol-4-yl)-6-[1-(methylsulfonyl)-1,2,3,6-tetrahydropyridin-4-yl]-7H-pyrrolo[2,3-d]pyrimidine] gave an IC50 against CDK9/Cyclin T1 of 2400 nM. This IC50 is about 8-fold higher than that of the compound before. At CDK9/Cyclin T1, `COc1ccc(F)cc1-c1ncnc2[nH]c(C3CCN(C)CC3)cc12` [Example 2, 4-(5-fluoro-2-methoxyphenyl)-6-(1-methylpiperidin-4-yl)-7H-pyrrolo[2,3-d]pyrimidine] came in with an IC50 of 110 nM. Against the preceding compound, the IC50 is about 22-fold lower.

On to `COc1ccncc1-c1ncnc2[nH]c(C3=CCN(S(C)(=O)=O)CC3)cc12` [Example 59, 4-(4-methoxypyridin-3-yl)-6-[1-(methylsulfonyl)-1,2,3,6-tetrahydropyridin-4-yl]-7H-pyrrolo[2,3-d]pyrimidine], for which the IC50 on CDK9/Cyclin T1 came out at 910 nM. For `COc1ccc(C)cc1-c1ncnc2[nH]c(C3=CCN(S(C)(=O)=O)CC3)cc12` [Example 44, 4-(2-methoxy-5-methylphenyl)-6-[1-(methylsulfonyl)-1,2,3,6-tetrahydropyridin-4-yl]-7H-pyrrolo[2,3-d]pyrimidine], at CDK9/Cyclin T1, the IC50 came out at 610 nM.
